From patent publication US20240101570A1 (AMGEN INC., priority 2020, published 2024)
pIC50: −log10 of the molar value.

Tests used:
[1] = test system: HCT116 MTAP null cells; assay: HCT116 MTAP null cell proliferation / viability (CellTiter-Glo, 6 days); type: cell-based; conditions: HCT116-MTAP null, 144 h, HCT116 MTAP null cells, 6 days, CellTiter-Glo; read-out: HCT-116 MTAP null IC50
Method in brief: (§1)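 CellTiter-Glo luminescence, 6-day exposure, RPMI 1640 + 10% FBS. Dosing: 1:3 series (8-9 pts, top 1 or 10 μM) or 1:2 series (22 pts, top 10 or 50 μM), DMSO control. IC50 = 50% of control via curve fit.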

[2] = test system: HCT116 WT cells; assay: HCT116 WT cell proliferation / viability (CellTiter-Glo, 6 days); type: cell-based; conditions: Homo sapiens, HCT-116, 144 h, HCT116 WT cells, 6 days, CellTiter-Glo; read-out: HCT-116 WT IC50
Method in brief: as §1

pIC50 [1] | pIC50 [2] | SMILES
7.10 | 5.47 | CN(Cc1ccc(S(F)(F)(F)(F)F)cc1)C(=O)c1cc2c(cc1F)nc(N)c1c2cnn1C [Example 515, 4-amino-7-fluoro-N,3-dimethyl-N-(4-(pentafluoro-lambda~6~- sulfanyl)benzyl)-3H-pyrazolo[3,4-c]quinoline-8-carboxamide]
6.78 | 5.03 | Cc1cc2nc(N)c3cnn(C)c3c2cc1C(=O)N(C)Cc1ccc(F)cn1 [Example 516, 4-amino-N-((5-fluoro-2-pyridinyl)methyl)-N,1,7-trimethyl-1H-pyrazolo[4,3-c]quinoline-8-carboxamide]
6.15 | 4.34 | CN(Cc1ccc(C2CC2)nn1)C(=O)c1cc2c(cc1F)nc(N)c1c2cnn1C [Example 517, 4-amino-N-((6-cyclopropyl-3-pyridazinyl)methyl)-7-fluoro-N,3-dimethyl-3H-pyrazolo[3,4-c]quinoline-8-carboxamide]
6.97 | 5.20 | CN(Cc1ccc(C2CC2)nn1)C(=O)c1cc2c(cc1F)nc(N)c1cnn(C)c12 [Example 518, 4-amino-N-((6-cyclopropyl-3-pyridazinyl)methyl)-7-fluoro-N,1-dimethyl-1H-pyrazolo[4,3-c]quinoline-8-carboxamide]
6.73 | 4.85 | CN(Cc1ccc(C2CC2)nn1)C(=O)c1cc2c3c(c(N)nc2cc1Cl)COC3 [Example 519, 4-amino-7-chloro-N-((6-cyclopropyl-3-pyridazinyl)methyl)-N-methyl-1,3-dihydrofuro[3,4-c]quinoline-8-carboxamide]
6.83 | 5.04 | Cc1cc2nc(N)c3c(cnn3C)c2cc1C(=O)N(C)Cc1ccc(C(F)(F)F)cn1 [Example 520, 4-amino-N,3,7-trimethyl-N-((5-(trifluoromethyl)-2-pyridinyl)methyl)-3H-pyrazolo[3,4-c]quinoline-8-carboxamide]
7.74 | 6.16 | Cc1cc2nc(N)c3cnn(C)c3c2cc1C(=O)N(C)Cc1ccc(C(F)(F)F)cn1 [Example 521, 4-amino-N,1,7-trimethyl-N-((5-(trifluoromethyl)-2-pyridinyl)methyl)-1H-pyrazolo[4,3-c]quinoline-8-carboxamide]
7.85 | 6.42 | CC(C)N(Cc1ccc(C2CC2)cn1)C(=O)c1cc2c(cc1F)nc(N)c1c2cnn1C [Example 522, 4-amino-N-((5-cyclopropyl-2-pyridinyl)methyl)-7-fluoro-3-methyl-N-(2-propanyl)-3H-pyrazolo[3,4-c]quinoline-8-carboxamide]
7.14 | 5.17 | CN(Cc1ccc(Cl)cn1)C(=O)c1ccc2nc(N)c3cnn(C)c3c2c1 [Example 523, 4-amino-N-((5-chloro-2-pyridinyl)methyl)-N,1-dimethyl-1H-pyrazolo[4,3-c]quinoline-8-carboxamide]
6.74 | 4.79 | CN(Cc1ccc(C(F)F)cn1)C(=O)c1ccc2nc(N)c3cnn(C)c3c2c1 [Example 524, 4-amino-N-((5-(difluoromethyl)-2-pyridinyl)methyl)-N,1-dimethyl-1H-pyrazolo[4,3-c]quinoline-8-carboxamide]
7.49 | 5.67 | CN(Cc1ccc(C(F)F)cn1)C(=O)c1cc2c(cc1F)nc(N)c1cnn(C)c12 [Example 525, 4-amino-N-((5-(difluoromethyl)-2-pyridinyl)methyl)-7-fluoro-N,1-dimethyl-1H-pyrazolo[4,3-c]quinoline-8-carboxamide]
6.77 | 5.16 | CN(Cc1ccc(C(F)(F)F)c(F)c1)C(=O)c1ccc2nc(N)c3cnn(C)c3c2c1 [Example 526, 4-amino-N-(3-fluoro-4-(trifluoromethyl)benzyl)-N,1-dimethyl-1H-pyrazolo[4,3-c]quinoline-8-carboxamide]
6.74 | 4.87 | CN(Cc1ncc(C(F)(F)F)cc1F)C(=O)c1ccc2nc(N)c3cnn(C)c3c2c1 [Example 527, 4-amino-N-((3-fluoro-5-(trifluoromethyl)-2-pyridinyl)methyl)-N,1-dimethyl-1H-pyrazolo[4,3-c]quinoline-8-carboxamide]
6.95 | 5.27 | CN(Cc1ncc(C(F)(F)F)cc1F)C(=O)c1cc2c3c(c(N)nc2cc1F)COC3 [Example 528, 4-amino-7-fluoro-N-((3-fluoro-5-(trifluoromethyl)-2-pyridinyl)methyl)-N-methyl-1,3-dihydrofuro[3,4-c]quinoline-8-carboxamide]
6.05 | 4.55 | CN(Cc1ccc(-c2cnn(C(F)(F)F)c2)nn1)C(=O)c1ccc2nc(N)c3cnn(C)c3c2c1 [Example 529, 4-amino-N,1-dimethyl-N-((6-(1-(trifluoromethyl)-1H-pyrazol-4-yl)-3-pyridazinyl)methyl)-1H-pyrazolo[4,3-c]quinoline-8-carboxamide]
6.78 | 5.18 | CN(Cc1ccc(-c2ccc(C(F)(F)F)cc2)nn1)C(=O)c1ccc2nc(N)c3cnn(C)c3c2c1 [Example 530, 4-amino-N,1-dimethyl-N-((6-(4-(trifluoromethyl)phenyl)-3-pyridazinyl)methyl)-1H-pyrazolo[4,3-c]quinoline-8-carboxamide]
6.73 | 5.63 | C[C@H](c1ccc(-c2ccc(C(F)(F)F)cc2)cc1)N(C)C(=O)c1ccc2nc(N)c3cnn(C)c3c2c1 [Example 531, 4-amino-N,1-dimethyl-N-((1R)-1-(4′-(trifluoromethyl)[biphenyl]-4-yl)ethyl)-1H-pyrazolo[4,3-c]quinoline-8-carboxamide]
7.43 | 5.69 | C[C@H](c1ccc(-c2ccc(C(F)(F)F)cc2)nn1)N(C)C(=O)c1ccc2nc(N)c3cnn(C)c3c2c1 [Example 532, 4-amino-N,1-dimethyl-N-((1R)-1-(6-(4-(trifluoromethyl)phenyl)-3-pyridazinyl)ethyl)-1H-pyrazolo[4,3-c]quinoline-8-carboxamide]
6.34 | 5.50 | C[C@H](c1ccc(-c2ccc(S(F)(F)(F)(F)F)cc2)cc1)N(C)C(=O)c1ccc2nc(N)c3cnn(C)c3c2c1 [Example 533, 4-amino-N,1-dimethyl-N-((1R)-1-(4′-(pentafluoro-lambda~6~- sulfanyl)[biphenyl]-4-yl)ethyl)-1H-pyrazolo[4,3-c]quinoline-8-carboxamide]
6.24 | 5.25 | CC(C)N(Cc1ccc(C(F)(F)F)cn1)C(=O)c1cc2c3c(c(N)nc2cn1)CCO3 [Example 534, 4-amino-N-(2-propanyl)-N-((5-(trifluoromethyl)-2-pyridinyl)methyl)-2,3-dihydrofuro[3,2-c][1,7]naphthyridine-8-carboxamide]
6.07 | 5.16 | CN(CC(F)(F)c1ccc(Cl)cn1)C(=O)c1ccc2nc(N)c3cnn(C)c3c2c1 [Example 535, 4-amino-N-(2-(5-chloro-2-pyridinyl)-2,2-difluoroethyl)-N,1-dimethyl-1H-pyrazolo[4,3-c]quinoline-8-carboxamide]
7.30 | 6.49 | CC(C)N(Cc1ccc(C(F)(F)F)cn1)C(=O)c1cc2c3c(c(N)nc2cc1F)CCO3 [Example 536, 4-amino-7-fluoro-N-(2-propanyl)-N-((5-(trifluoromethyl)-2-pyridinyl)methyl)-2,3-dihydrofuro[3,2-c]quinoline-8-carboxamide]
6.65 | 5.27 | CCN(Cc1ccc(C(F)(F)F)cn1)C(=O)c1cc2c3c(c(N)nc2nc1Cl)COC3 [Example 537, 4-amino-7-chloro-N-ethyl-N-((5-(trifluoromethyl)-2-pyridinyl)methyl)-1,3-dihydrofuro[3,4-c][1,8]naphthyridine-8-carboxamide]
7.40 | 6.13 | Cc1nn(C)c2c1c(N)nc1cc(F)c(C(=O)N(Cc3ccc(C(F)(F)F)cn3)C(C)C)cc12 [Example 538, 4-amino-7-fluoro-1,3-dimethyl-N-(2-propanyl)-N-((5-(trifluoromethyl)-2-pyridinyl)methyl)-1H-pyrazolo[4,3-c]quinoline-8-carboxamide]
6.97 | 5.68 | CCN(Cc1ccc(C2CC2)cn1)C(=O)c1ccc2nc(N)c3c(c2c1)COC3 [Example 539, 4-amino-N-((5-cyclopropyl-2-pyridinyl)methyl)-N-ethyl-1,3-dihydrofuro[3,4-c]quinoline-8-carboxamide]
7.41 | 5.83 | CCN(Cc1ccc(C2CC2)cn1)C(=O)c1ccc2nc(N)c3cnn(C)c3c2c1 [Example 540, 4-amino-N-((5-cyclopropyl-2-pyridinyl)methyl)-N-ethyl-1-methyl-1H-pyrazolo[4,3-c]quinoline-8-carboxamide]
7.43 | 6.26 | CCN(Cc1ccc(C2CC2)cn1)C(=O)c1cc2c(cn1)nc(N)c1cnn(C)c12 [Example 541, 4-amino-N-((5-cyclopropyl-2-pyridinyl)methyl)-N-ethyl-1-methyl-1H-pyrazolo[4,3-c][1,7]naphthyridine-8-carboxamide]
7.46 | 5.81 | CCN(Cc1ccc(C2CC2)cn1)C(=O)c1ccc2nc(N)c3c(c2c1)CO[C@@H]3C [Example 542, (3R)-4-amino-N-((5-cyclopropyl-2-pyridinyl)methyl)-N-ethyl-3-methyl-1,3-dihydrofuro[3,4-c]quinoline-8-carboxamide]
7.24 | 5.70 | CN(Cc1ccc(C(F)(F)F)cc1)C(=O)c1ccc2nc(N)c3cnn(C)c3c2c1 [Example 543, 4-amino-N,1-dimethyl-N-(4-(trifluoromethyl)benzyl)-1H-pyrazolo[4,3-c]quinoline-8-carboxamide]
